Assays:
Format in all cases: cell-based
yeast cells = test: Neubauer chamber microscopy with erythrosine dye (Method 2), yeast cell count, viability and budding; conditions: exposure +30° C. 5 hours; for Reproductive yeast cells %: budding cells over total living cells; for CFU/ml Yeasts 48 h, Neubauer count: total yeast cells; for Yeast cell viability %: viable cells over total cells (live+dead)
Procedure: (§1) Total viable bacteria and viable yeasts in the samples herein were measured as colony forming units (CFU) per unit of volume (i.e., CFU/ml). The viability of yeasts and their ability to reproduce were measured by using a microscopical method, where specific dye (erythrosine) was used to visualize the amount and form (live, dead, budding) of yeast cells.
(§2) The yeast cream samples (recovered from the wine, through a centrifuge) were diluted with lake water in a ratio of 30%+70%, respectively. The diluted yeast cream samples (later on called yeast cream solutions) were exposed to varying concentrations of performic acid in the equilibrium solution as follows: 49.5 ppm, 74.3 ppm and 99 ppm. In a control sample, no performic acid was added to the yeast cream solution. The effect of performic acid on bacteria was determined by one method (method 1), and on yeast cells by two methods (methods 1 and 2).
The exposed samples and the control sample were held in +30° C. for 5 hours, after which the specific parameters of yeast cells were measured. These parameters included the amount of living yeast cells, dead yeast cells and budding yeast cells (i.e. reproducing yeast cells). The method used was a standard method, commonly adopted by Brazilian Sugar Cane Industry mills. In the method, a Neubauer chamber was filled with approximately 10 μl of the exposed sample, where the erythrosine dye had been mixed in. On the cover slip, a drop of immersion oil was added, and the above mentioned yeast cell parameters were evaluated by using an immersion objective (100×) of the microscope. The cells that presented pink coloration were counted as dead cells, and uncolored cells as living cells. The budding cells were determined on the basis of the shape of the yeast cell.
The total amount of the yeast cells was counted and compared to the result obtained with Method 1. Results are provided in Table 1 (Neubauer count of yeast cells). The cell viability indicates the percentage of viable cells over total cells (live+dead). The cell reproductive % indicates the percentage of budding cells over total living cells.

yeasts = test: Serial dilution and cultivation on Petri films after exposure of yeast cream solution (Method 1), yeasts; conditions: exposure +30° C. 30 minutes, incubated +30° C. 48 hours
Procedure: as §1, §2
(§3) The exposed samples and the control sample were held in +30° C. for 30 minutes, after which the amount of survived microbes was enumerated. The method used was a Serial dilution and cultivation method, where the effect of performic acid on the yeast cream solution was measured via dilution and cultivation of the sample after the exposure, to enumerate the amount of microbial growth. This method entail the dilution of each is sample by a factor large enough to enable clear separation of individual microbial colonies on Petri™ films (from 3M); thus allowing the colonies to be individually counted. Where diluted samples had been applied and inoculated in, the Petri™ films were incubated at +35° C. for 48 hours (bacteria) or at +30° C. for 48 hours (yeasts).

bacteria = test: Serial dilution and cultivation on Petri films after exposure of yeast cream solution (Method 1), bacteria; conditions: exposure +30° C. 30 minutes, incubated +35° C. 48 hours
Procedure: as §1, §2, §3

[1] = 49.5 ppm performic acid in yeast cream solution
[2] = 74.3 ppm performic acid in yeast cream solution
[3] = 99 ppm performic acid in yeast cream solution

O=COO [performic acid]
Reproductive yeast cells % (yeast cells; [1]): 6.8%
CFU/ml Yeasts 48 h, Neubauer count (yeast cells; [1]): 380 000 000 CFU/ml
Yeast cell viability % (yeast cells; [1]): 71.1%
Reproductive yeast cells % (yeast cells; [2]): 8.9%
CFU/ml Yeasts 48 h, Neubauer count (yeast cells; [2]): 400 000 000 CFU/ml
Yeast cell viability % (yeast cells; [2]): 72.1%
Reproductive yeast cells % (yeast cells; [3]): 4.1%
CFU/ml Yeasts 48 h, Neubauer count (yeast cells; [3]): 640 000 000 CFU/ml
Yeast cell viability % (yeast cells; [3]): 72.3%
CFU/ml Yeasts 48 h, MIC (yeasts; [1]): 1 000 000 000 CFU/ml
CFU/ml Yeasts 48 h, MIC (yeasts; [2]): 6 100 000 000 CFU/ml
CFU/ml Yeasts 48 h, MIC (yeasts; [3]): 1 000 000 000 CFU/ml
CFU/ml Bacteria 48 h, MIC (bacteria; [1]): 60 CFU/ml
CFU/ml Bacteria 48 h, MIC (bacteria; [2]): 70 CFU/ml
CFU/ml Bacteria 48 h, MIC (bacteria; [3]): 30 CFU/ml

Reference: US20140039050A1, “METHOD FOR […] INFECTION IN A FE[…]” (priority 2011, published 2014)
